Data from patent US9809598B2 (Merck Patent GmbH, priority 2014, dated 2017).

Experiments:
[1] = molecular target: T1, TNKS2 (Homo sapiens, UniProt Q9H2K2); assay: TNKS2 activity ELISA (autoparsylation assay); assay type: biochemical; conditions: GST-tagged Tnks-2 (873-1166 aa); read-out: IC50 [M] TNKS2 ELISA
T1 construct: GST-tagged Tnks-2 (873-1166 aa, prepared in-house); made in house
Summary of the method: (§1)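 Autoparsylation ELISA: biotinylated NAD serves as co-substrate for plate-bound GST-TNKS1/TNKS2, incubated with test compounds. Readout is HRP luminescence after streptavidin-HRP binding, referenced to the no-inhibitor reaction, from which IC50 values are derived.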

[2] = test system: Tankyrases; conditions: read-out: EC50 [M] TNKS cellular assay; DLD1 cells, 24 hours, Axin2 increase
[3] = molecular target: T2, TNKS1 (Homo sapiens, UniProt O95271); assay: TNKS1 activity ELISA (autoparsylation assay); assay type: biochemical; conditions: GST-tagged Tnks-1 (1023-1327 aa)
T2 construct: GST-tagged Tnks-1 (1023-1327 aa, prepared in-house); made in house
T2 sequence (O95271 1023-1327): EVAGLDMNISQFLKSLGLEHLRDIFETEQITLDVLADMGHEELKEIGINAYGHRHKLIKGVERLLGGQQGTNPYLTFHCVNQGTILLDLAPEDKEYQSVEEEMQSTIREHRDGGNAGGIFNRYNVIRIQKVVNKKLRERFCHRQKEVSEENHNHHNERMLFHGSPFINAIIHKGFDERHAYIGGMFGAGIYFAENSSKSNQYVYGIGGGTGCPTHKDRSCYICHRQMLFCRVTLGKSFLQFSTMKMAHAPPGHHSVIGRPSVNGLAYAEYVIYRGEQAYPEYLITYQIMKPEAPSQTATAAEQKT
Summary of the method: as §1

[4] = molecular target: T3, PARP-1 (Homo sapiens, UniProt P09874); assay: PARP-1 autoparsylation assay (HTRF); assay type: biochemical; conditions: His-tagged Parp-1, autoparsylation HTRF
T3 construct: purchased Enzo Life Sciences GmbH, Lörrach, Germany
T3 sequence (P09874 whole entry): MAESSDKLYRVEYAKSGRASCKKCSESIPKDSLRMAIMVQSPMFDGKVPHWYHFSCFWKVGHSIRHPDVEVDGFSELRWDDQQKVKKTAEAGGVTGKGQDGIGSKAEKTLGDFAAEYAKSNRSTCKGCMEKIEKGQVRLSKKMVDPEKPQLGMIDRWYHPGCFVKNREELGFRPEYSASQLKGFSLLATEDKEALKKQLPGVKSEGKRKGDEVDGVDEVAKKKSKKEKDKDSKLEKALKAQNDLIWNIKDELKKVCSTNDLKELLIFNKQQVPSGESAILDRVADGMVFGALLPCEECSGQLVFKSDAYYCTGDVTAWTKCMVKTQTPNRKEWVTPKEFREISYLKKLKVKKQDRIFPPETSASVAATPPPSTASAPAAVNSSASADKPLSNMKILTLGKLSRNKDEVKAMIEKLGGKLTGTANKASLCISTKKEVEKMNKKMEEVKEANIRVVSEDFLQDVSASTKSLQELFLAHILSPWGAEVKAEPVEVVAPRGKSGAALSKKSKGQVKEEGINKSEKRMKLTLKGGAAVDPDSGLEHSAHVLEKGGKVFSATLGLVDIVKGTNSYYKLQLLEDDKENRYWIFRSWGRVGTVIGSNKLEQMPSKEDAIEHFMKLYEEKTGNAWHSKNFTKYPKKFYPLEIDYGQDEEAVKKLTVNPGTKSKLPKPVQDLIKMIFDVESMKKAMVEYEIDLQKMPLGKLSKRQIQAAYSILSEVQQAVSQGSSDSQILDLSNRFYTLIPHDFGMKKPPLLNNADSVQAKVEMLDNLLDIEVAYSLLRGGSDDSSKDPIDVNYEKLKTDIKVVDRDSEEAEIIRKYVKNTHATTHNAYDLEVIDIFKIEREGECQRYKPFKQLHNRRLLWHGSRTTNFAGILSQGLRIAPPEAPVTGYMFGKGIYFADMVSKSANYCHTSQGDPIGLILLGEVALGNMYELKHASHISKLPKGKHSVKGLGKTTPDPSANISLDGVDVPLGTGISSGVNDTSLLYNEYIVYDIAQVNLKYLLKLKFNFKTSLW
Summary of the method: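 HTRF emission ratio reports biotin-ADP-ribose self-transfer onto His-tagged PARP-1, with biotinylated NAD/NAD as co-substrate, sensed via cryptate anti-His and Xlent-streptavidin.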

T1 sequence (Q9H2K2 873-1166): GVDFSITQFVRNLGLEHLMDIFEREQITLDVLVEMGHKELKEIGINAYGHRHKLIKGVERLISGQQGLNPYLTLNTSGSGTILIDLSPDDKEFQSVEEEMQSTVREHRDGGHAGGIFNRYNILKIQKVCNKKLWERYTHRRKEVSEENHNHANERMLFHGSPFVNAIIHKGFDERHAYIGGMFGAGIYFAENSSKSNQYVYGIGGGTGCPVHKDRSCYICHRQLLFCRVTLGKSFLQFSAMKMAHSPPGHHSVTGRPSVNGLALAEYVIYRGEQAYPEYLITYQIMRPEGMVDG

Structure (SMILES) | IC50 [1] [M] | EC50 [2] [M] | IC50 [3] [nM] | IC50 [4] [nM]
Cc1csc2c(=O)[nH]c(CCCC(=O)N3CCC(c4cnc(N)c(C#N)c4)CC3)nc12 [Compound C56, 6-Amino-1′-[4-(7-methyl-4-oxo-3,4-dihydro-thieno[3,2-d]pyrimidin-2-yl)-butyryl]-1′,2′,3′,4′,5′,6′-hexahydro-[3,4′]bipyridinyl-5-carbonitrile] | 5.3e-10 | 3.6e-08 | 0.95 | 360
Cc1ccc2c(=O)[nH]c(CCCC(=O)N3CCC(c4nnc(-c5ccccc5)o4)CC3)nn12 [Compound C151, 7-Methyl-2-{4-oxo-4-[4-(5-phenyl-[1,3,4]oxadiazol-2-yl)-piperidin-1-yl]-butyl}-3H-pyrrolo[2,1-f][1,2,4]triazin-4-one] | 9.3e-10 | 1.9e-08 | 1.4 | 210
N#Cc1cc(C2CCN(C(=O)CCCc3nn4cccc4c(=O)[nH]3)CC2)cnc1N [Compound C138, 6-Amino-1′-[4-(4-oxo-3,4-dihydro-pyrrolo[2,1-f][1,2,4]triazin-2-yl)-butyryl]-1′,2′,3′,4′,5′,6′-hexahydro-[3,4′]bipyridinyl-5-carbonitrile] | 2.6e-09 | 5.2e-08 | 2.2 | 3200
Cc1cc2c(=O)[nH]c(CCCC(=O)N3CCC(c4nnc(-c5ccccc5)o4)CC3)nn2c1 [Compound C162, 6-Methyl-2-{4-oxo-4-[4-(5-phenyl-[1,3,4]oxadiazol-2-yl)-piperidin-1-yl]-butyl}-3H-pyrrolo[2,1-f][1,2,4]triazin-4-one] | 3.7e-08 | 5e-07 | 20 | 1400
Cn1cc(C(=O)C2CCN(C(=O)CCCc3nc4c(c(=O)[nH]3)CCCC4)CC2)cn1 [Compound C230, 2-{4-[4-(1-Methyl-1H-pyrazole-4-carbonyl)-piperidin-1-yl]-4-oxo-butyl}-5,6,7,8-tetrahydro-3H-quinazolin-4-one] | 2.1e-09 | 4.7e-08 | 5.1 | 1800
COc1ccc(C(=O)C2CCN(C(=O)CCCc3nc4c(C)csc4c(=O)[nH]3)CC2)cn1 [Compound C126, 2-{4-[4-(6-Methoxypyridine-3-carbonyl)-1-piperidyl]-4-oxo-butyl}-7-methyl-3H-thieno[3,2-d]pyrimidin-4-one] | 1.6e-10 | 1.3e-08 | 0.23 | 560
COc1ccc(C(=O)C2CCN(C(=O)CCCc3nc4c(cnn4C)c(=O)[nH]3)CC2)cc1C [Compound C49, 6-{4-[4-(4-Methoxy-3-methyl-benzoyl)-piperidin-1-yl]-4-oxo-butyl}-1-methyl-1,5-dihydro-pyrazolo[3,4-d]pyrimidin-4-one] | 1.4e-10 | 3.1e-10 | 0.16 | 9900
N#Cc1ccc(OC2CCN(C(=O)CCCc3nn4cccc4c(=O)[nH]3)CC2)cc1 [Compound C141, 4-{1-[4-(4-Oxo-3,4-dihydro-pyrrolo[2,1-f][1,2,4]triazin-2-yl)-butyryl]-piperidin-4-yloxy}-benzonitrile] | 6.5e-08 | 6.8e-07 | 100 | 2600
COc1ccc(C(=O)C2CCN(C(=O)CCCc3nn4c(C)ccc4c(=O)[nH]3)CC2)cc1 [Compound C37, 2-{4-[4-(4-Methoxybenzoyl)-piperidin-1-yl]-4-oxo-butyl}-7-methyl-3H-pyrrolo[2,1-f][1,2,4]triazin-4-one] | < 1e-10 | 1e-09 | < 0.1 | 620
CCn1cc(C(=O)C2CCN(C(=O)CCCc3nn4c(C)ccc4c(=O)[nH]3)CC2)cn1 [Compound C222, 2-{4-[4-(1-Ethyl-1H-pyrazole-4-carbonyl)-piperidin-1-yl]-4-oxo-butyl}-7-methyl-3H-pyrrolo[2,1-f][1,2,4]triazin-4-one] | 2.9e-10 | 2.6e-09 | 0.24 | 1200
